Our source for the IC50 values is patent US7674906B2, “Tetracyclic immunomodulatory compounds” (Active Biotech AB, priority 2002, dated 2010).

The target of the experiment is T1, CD80-CD 28 interaction (Homo sapiens, UniProt P33681).
T1 sequence (P33681 35-242 limits assumed): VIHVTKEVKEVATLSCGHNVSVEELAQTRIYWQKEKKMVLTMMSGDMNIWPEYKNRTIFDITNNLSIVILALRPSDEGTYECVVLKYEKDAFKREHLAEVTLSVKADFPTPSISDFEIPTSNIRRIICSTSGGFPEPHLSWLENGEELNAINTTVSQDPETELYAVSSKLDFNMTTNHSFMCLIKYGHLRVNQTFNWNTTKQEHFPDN
The experiment can be described thus: cell free Homogenous Time Resolved Fluorescence (HTRF) assay, inhibition of the CD80-CD28 interaction. Format: binding. Conditions: CD28-mouse Fc fusion protein and CD80 mouse Fab fragment (C215) fusion protein, 4 hours at room temperature, concentration series 100 μM-1.7 nM. Here is the method: The examples described above were tested in a cell free Homogenous Time Resolved Fluorescence (HTRF) assay to determine their activity as inhibitors of the CD80-CD 28 interaction.
In the assay, europium and allophycocyanin (APC) are associated with CD28 and CD80 indirectly (through anti-body linkers) to form a complex, which brings the europium and APC into close proximity to generate a signal. The complex comprises the following six proteins: fluorescent label 1, linker antibody 1, CD28 fusion protein, CD80 fusion protein, linker antibody 2, and fluorescent label 2. The table below describes these reagents in greater detail.
On formation of the complex, europium and APC are brought into proximity and a signal is generated.
Non-specific interaction was measured by substituting a mouse Fab fragment (C215) for the CD80 mouse Fab fragment fusion protein (1.9 μg/ml). The assay was carried out in black 384 well plates in a final volume of 30 μl. Assay buffer: 50 mM Tris-HCl, 150 mM NaCl pH7.8, containing 0.1% BSA (w/v) added just prior to use.
Compounds were added to the above reagents in a concentration series ranging between 100 μM-1.7 nM. The reaction was incubated for 4 hours at room temperature. Dual measurements were made using a Wallac Victor 1420 Multilabel Counter. First measurement: excitation 340 nm, emission 665 nm, delay 50 μs, window time 200 μs. second measurement: excitation 340 nm, emission 615 nm, delay 50 μs, window time 200 μs. Counts were automatically corrected for fluorescence crossover, quenching and background.
In general, IC50 refers to the concentration that gives 50% inhibition. On to `COc1ccc(-c2[nH]c3ccccc3c3nn(-c4cccc(C(=O)O)c4)c(=O)c2-3)cc1` [Example 9], for which the IC50 turned out to be 4.6 µM.
The result for `O=C(O)c1ccc(-n2nc3c4ccccc4[nH]c(-c4cccc([N+](=O)[O-])c4)c-3c2=O)cc1` [Example 5, 4-[4-(3-Nitro-phenyl)-3-oxo-3,5-dihydro-pyrazolo[4,3-c]-quinolin-2-yl]-benzoic acid] reads 8.6 µM; that for `COc1ccc(-c2[nH]c3ccccc3c3nn(-c4ccc(C(=O)O)cc4)c(=O)c2-3)cc1` [Example 7, 4-[4-(4-Methoxyphenyl)-3-oxo-3,5-dihydropyrazolo[4,3-c]-quinolin-2-yl]benzoic acid], 3.4 µM.
